How the values were obtained:
Type in all cases: in vivo
Ob/Ob obese mice = experiment: Biochemical indexes in Ob/Ob obese mice; conditions: 400 mg/kg
Description: After 1 week of adaptive feeding, animals were randomly divided into two groups according to body weight: model control group, and IMM-H007 group (400 mg/kg), 10 in each group, and were given normal feed and simultaneously administered intragastrically at a dose of 0.1 ml/10 g body weight, and were continuously administered and fed for 9 weeks. The changes of food intake and body weight were recorded, and routine biochemical indicators such as blood lipids and blood glucose, etc. were measured. After 9 weeks, 3 animals were taken from each group and the mesenteric arterioles were taken for measurement of vascular endothelial function in the same manner as in Example 2.
Detection Indicators (1) Routine Biochemical Indicators and (2) Vascular Endothelial Function

TNF-α = experiment: Serum inflammatory factor TNF-α in ApoE−/− mice (ELISA); design: unit not given here
Description: After 1 week of adaptive feeding, the animals were randomly divided into 7 groups according to body weight: normal control group, model control group A769662 (30 mg/kg) administration group, metformin (260 mg/kg) administration group, IMM-H007 low, medium, and high administration groups (50, 100, 200 mg/kg), 8 in each group, and were given a high-fat diet (78.6% basal diet, 10% lard, 1.0% cholesterol, 10% egg yolk powder, and 0.4% bile salt), […] body weight, and were continuously administered and fed for 8 weeks to establish an atherosclerosis model.
(2) Effect of IMM-H007 on Serum Inflammatory Factors TNF-α and VCAM-1 in ApoE−/− Mice
Operated according to kit instructions

[1] = tested on: third-order mesenteric artery; experiment: Mesenteric microvascular endothelial function in ApoE−/− mice (pressure myography, Ach / SNP relaxation)
Description: After 1 week of adaptive feeding, the animals were randomly divided into 7 groups according to body weight: normal control group, model control group A769662 (30 mg/kg) administration group, metformin (260 mg/kg) administration group, IMM-H007 low, medium, and high administration groups (50, 100, 200 mg/kg), 8 in each group, and were given a high-fat diet (78.6% basal diet, 10% lard, 1.0% cholesterol, 10% egg yolk powder, and 0.4% bile salt), and simultaneously administered intragastrically at a dose of 0.1 ml/10 g body weight, and were continuously administered and fed for 8 weeks to establish an atherosclerosis model.
PSS and KPSS solutions were configured according to the instructions and used at the same time of the day. The PSS solution was taken out before the start of the experiment and pre-oxygenated for about 20 min. The ApoE−/− mice, which were fed with high-fat and simultaneously administered for 10 weeks, were anesthetized with pentobarbital sodium. The mice were supine and fixed. The abdominal cavity was opened along the median line. The mesenteric vascular bed was isolated and placed in the pre-oxygenated 20-minute PSS buffer. Under a stereomicroscope, a third-order mesenteric artery with a length of about 3 mm was carefully isolated. Firstly, the blood vessel was fixed to a P1 glass cannula and the coil was tightened. Note: the proximal end should be connected to the P1 end, and the P2 end vessel should be fixed and the coil should be tightened. The Chamber was placed on a objective table of the microscope and the data connection between Chamber and Interface was checked. The bath cover was covered and the oxygen was introduced, to exhaust air in the pipeline. The blood vessel image was found under the microscope and then the microscope was turned to camera mode. (The knob on the side of the eyepiece was rotated to graph.) MyoVIEW software was opened. The Camera window Capture was clicked to display the blood vessel image. The equilibration of blood vessels slowly rose from 10 mmHg to 60 mmHg, and each step was 300 s. After the equilibration procedure was completed, the solution in the bath was drained. Blood vessels were stimulated (10 ml) for 2 min using a 37° C. pre-heated KPSS solution, and changes in vasoconstriction were observed, and the blood vessels were then eluted using the PSS solution to baseline. The blood vessels were equilibrated at 60 mmHg 37° C. for 45 minutes, during which time the fluid was replaced every 20 minutes. The experiment was started: observing the vasodilatory response induced by 10^−10 to 10^−5 M Ach after pre-contraction with 2 μM phenylephrine, to evaluate the effect of the drugs on the vascular endothelial function. At the end of the experiment, the fresh 37° C. pre-heated PSS buffer was replaced for equilibration for 30 min, and the 10^−10M to 10^−3 M sodium nitroprusside were given to induce vasodilatory response after pre-contraction with 2 μM phenylephrine, to evaluate the effect of the drugs on vascular smooth muscle function. LD1 was the diameter of blood vessel after relaxation by administration of different concentrations of ACh or sodium nitroprusside, LD2 was the diameter of blood vessels after pre-contraction with phenylephrine, and LD3 represented the maximum diastolic diameter of blood vessel without any stimulant.
The relaxation response to Ach and sodium nitroprusside after pre-contraction with phenylephrine was expressed as the percentage increase in the vascular diameter: % Relaxation=(LD1−LD2)/(LD3−LD2)×100.

CC(=O)OCC1OC(n2cnc3c(Nc4cccc(O)c4)ncnc32)C(OC(C)=O)C1OC(C)=O (stereo not shown) [IMM-H007, 2′,3,′ 5′-triacetyl-N^6(3-hydroxyphenyl)adenosine] gave a Fasting blood glucose (Ob/Ob obese mice; 4 week) of 6.69 ± 0.12 mmol/L, a Fasting insulin (Ob/Ob obese mice; 4 week) of 1.60 ± 0.18 ng/mL and a Free fatty acid (Ob/Ob obese mice; 4 week) of 1.06 ± 0.03 mEq/l. For the same compound, the Ingestion (Ob/Ob obese mice; 4 week) was 5.48 ± 0.05 g/day, the Low-density lipoprotein (Ob/Ob obese mice; 4 week) was 1.16 ± 0.04 mmol/L and the Total cholesterol (Ob/Ob obese mice; 4 week) was 3.57 ± 0.07 mmol/L. It also gave a Triglyceride (Ob/Ob obese mice; 4 week) of 0.69 ± 0.03 mmol/L, a Body weight (Ob/Ob obese mice; 9 week) of 51.18 ± 0.67 g and a Fasting blood glucose (Ob/Ob obese mice; 9 week) of 9.98 ± 0.51 mmol/L. For the same compound, the Fasting insulin (Ob/Ob obese mice; 9 week) was 6.07 ± 0.48 ng/mL, the Free fatty acid (Ob/Ob obese mice; 9 week) was 0.44 ± 0.07 mEq/l and the Ingestion (Ob/Ob obese mice; 9 week) was 5.47 ± 0.08 g/day. The Low-density lipoprotein (Ob/Ob obese mice; 9 week) was 1.70 ± 0.28 mmol/L, the Total cholesterol (Ob/Ob obese mice; 9 week) was 4.13 ± 0.67 mmol/L and the Triglyceride (Ob/Ob obese mice; 9 week) was 0.52 ± 0.09 mmol/L. The “serum TNF-α” value (TNF-α; 100 mg/kg) was 256.3 ± 46.4, the “serum TNF-α” value (TNF-α; 200 mg/kg) was 250.2 ± 27.8 and the “sodium nitroprusside endothelium-independent relaxation of microvascular” value ([1]; 50 mg/kg, 1 × 10^−3 M SNP) was 96.5 ± 6.3%. The “sodium nitroprusside endothelium-independent relaxation of microvascular” value ([1]; 50 mg/kg, 1 × 10^−4 M SNP) was 80.3 ± 12.1%, the “acetylcholine-induced endothelium-dependent relaxation of microvascular” value ([1]; 50 mg/kg, 1 × 10^−5 M Ach) was 95.0 ± 4.4 % and the “sodium nitroprusside endothelium-independent relaxation of microvascular” value ([1]; 50 mg/kg, 1 × 10^−5 M SNP) was 74.5 ± 12.8%. The “acetylcholine-induced endothelium-dependent relaxation of microvascular” value ([1]; 50 mg/kg, 1 × 10^−6 M Ach) was 87.3 ± 5.0 %, the “sodium nitroprusside endothelium-independent relaxation of microvascular” value ([1]; 50 mg/kg, 1 × 10^−6 M SNP) was 66.4 ± 11.6% and the “acetylcholine-induced endothelium-dependent relaxation of microvascular” value ([1]; 50 mg/kg, 1 × 10^−7 M Ach) was 48.7 ± 12.8%. The “sodium nitroprusside endothelium-independent relaxation of microvascular” value ([1]; 50 mg/kg, 1 × 10^−7 M SNP) was 60.9 ± 8.5%, the “acetylcholine-induced endothelium-dependent relaxation of microvascular” value ([1]; 50 mg/kg, 1 × 10^−8 M Ach) was 29.3 ± 21.8% and the “sodium nitroprusside endothelium-independent relaxation of microvascular” value ([1]; 50 mg/kg, 1 × 10^−8 M SNP) was 52.9 ± 14.2%. For the same compound, the “acetylcholine-induced endothelium-dependent relaxation of microvascular” value ([1]; 50 mg/kg, 1 × 10^−9 M Ach) was 12.9 ± 12.6%, the “sodium nitroprusside endothelium-independent relaxation of microvascular” value ([1]; 50 mg/kg, 1 × 10^−9 M SNP) was 43.9 ± 18.2% and the “acetylcholine-induced endothelium-dependent relaxation of microvascular” value ([1]; 50 mg/kg, 1 × 10^−10 M Ach) was 5.0 ± 5.1%. For the same compound, the “sodium nitroprusside endothelium-independent relaxation of microvascular” value ([1]; 50 mg/kg, 1 × 10^−10 M SNP) was 19.9 ± 10.1%, the “microvascular endothelial dysfunction caused by high fat” value ([1]; 50 mg/kg, compared with the model control group) was “significantly improve” and the “sodium nitroprusside endothelium-independent relaxation of microvascular” value ([1]; 100 mg/kg, 1 × 10^−3 M SNP) was 96.5 ± 3.6%. For the same compound, the “sodium nitroprusside endothelium-independent relaxation of microvascular” value ([1]; 100 mg/kg, 1 × 10^−4 M SNP) was 87.5 ± 10.9%, the “acetylcholine-induced endothelium-dependent relaxation of microvascular” value ([1]; 100 mg/kg, 1 × 10^−5 M Ach) was 93.9 ± 12.9 % and the “sodium nitroprusside endothelium-independent relaxation of microvascular” value ([1]; 100 mg/kg, 1 × 10^−5 M SNP) was 78.4 ± 13.0%. For the same compound, the “acetylcholine-induced endothelium-dependent relaxation of microvascular” value ([1]; 100 mg/kg, 1 × 10^−6 M Ach) was 82.9 ± 8.5 %, the “sodium nitroprusside endothelium-independent relaxation of microvascular” value ([1]; 100 mg/kg, 1 × 10^−6 M SNP) was 64.6 ± 12.2% and the “acetylcholine-induced endothelium-dependent relaxation of microvascular” value ([1]; 100 mg/kg, 1 × 10^−7 M Ach) was 43.1 ± 21.8%. The “sodium nitroprusside endothelium-independent relaxation of microvascular” value ([1]; 100 mg/kg, 1 × 10^−7 M SNP) was 51.5 ± 17.9%, the “acetylcholine-induced endothelium-dependent relaxation of microvascular” value ([1]; 100 mg/kg, 1 × 10^−8 M Ach) was 18.6 ± 17.2% and the “sodium nitroprusside endothelium-independent relaxation of microvascular” value ([1]; 100 mg/kg, 1 × 10^−8 M SNP) was 44.9 ± 21.9%. The “acetylcholine-induced endothelium-dependent relaxation of microvascular” value ([1]; 100 mg/kg, 1 × 10^−9 M Ach) was 10.2 ± 12.0%, the “sodium nitroprusside endothelium-independent relaxation of microvascular” value ([1]; 100 mg/kg, 1 × 10^−9 M SNP) was 33.9 ± 23.5% and the “acetylcholine-induced endothelium-dependent relaxation of microvascular” value ([1]; 100 mg/kg, 1 × 10^−10 M Ach) was 2.37 ± 3.4%. For the same compound, the “sodium nitroprusside endothelium-independent relaxation of microvascular” value ([1]; 100 mg/kg, 1 × 10^−10 M SNP) was 11.9 ± 13.5%, the “acetylcholine-induced endothelium-dependent relaxation response” value ([1]; 100 mg/kg, compared with the model control group) was “significantly improve” and the “sodium nitroprusside endothelium-independent relaxation of microvascular” value ([1]; 200 mg/kg, 1 × 10^−3 M SNP) was 96.9 ± 2.9%. The “sodium nitroprusside endothelium-independent relaxation of microvascular” value ([1]; 200 mg/kg, 1 × 10^−4 M SNP) was 91.3 ± 6.2%, the “acetylcholine-induced endothelium-dependent relaxation of microvascular” value ([1]; 200 mg/kg, 1 × 10^−5 M Ach) was 96.9 ± 14.2 % and the “sodium nitroprusside endothelium-independent relaxation of microvascular” value ([1]; 200 mg/kg, 1 × 10^−5 M SNP) was 75.3 ± 12.6%. The “acetylcholine-induced endothelium-dependent relaxation of microvascular” value ([1]; 200 mg/kg, 1 × 10^−6 M Ach) was 73.3 ± 17.5 %, the “sodium nitroprusside endothelium-independent relaxation of microvascular” value ([1]; 200 mg/kg, 1 × 10^−6 M SNP) was 58.0 ± 21.3% and the “acetylcholine-induced endothelium-dependent relaxation of microvascular” value ([1]; 200 mg/kg, 1 × 10^−7 M Ach) was 42.2 ± 20.8%. The “sodium nitroprusside endothelium-independent relaxation of microvascular” value ([1]; 200 mg/kg, 1 × 10^−7 M SNP) was 44.9 ± 27.8%, the “acetylcholine-induced endothelium-dependent relaxation of microvascular” value ([1]; 200 mg/kg, 1 × 10^−8 M Ach) was 32.0 ± 20.1% and the “sodium nitroprusside endothelium-independent relaxation of microvascular” value ([1]; 200 mg/kg, 1 × 10^−8 M SNP) was 39.4 ± 24.2%. For the same compound, the “acetylcholine-induced endothelium-dependent relaxation of microvascular” value ([1]; 200 mg/kg, 1 × 10^−9 M Ach) was 18.8 ± 17.5%, the “sodium nitroprusside endothelium-independent relaxation of microvascular” value ([1]; 200 mg/kg, 1 × 10^−9 M SNP) was 28.9 ± 29.5% and the “acetylcholine-induced endothelium-dependent relaxation of microvascular” value ([1]; 200 mg/kg, 1 × 10^−10 M Ach) was 9.5 ± 12.0%. The “sodium nitroprusside endothelium-independent relaxation of microvascular” value ([1]; 200 mg/kg, 1 × 10^−10 M SNP) was 19.4 ± 3.05%.

Reference: patent publication US11324768B2, “Applications of triacetyl-3-hydroxyl phenyl adenosine in treating vascular inflammations or improving vascular endothelium functions” (priority 2016, dated 2022)
